Measured values as given in patent publication US20230053540A1, “TREATMENT OF LIVER INJURY” (Massachusetts Institute of Technology, priority 2019, published 2023).

Tested on: hepatocytes
Assay: Seq-Well scRNA-Seq of hepatocytes after APAP overdose (signature scores, DEG vs untreated)
Format: in vivo, mouse
Conditions: A96 vs untreated (UT)

Q: What does the source list for `CC(=O)Nc1ccc(O)cc1` [APAP, acetaminophen]?
A: Herpud1 avg_logFC: 0.3333; Herpud1 pct.1: 0.9; Hhex avg_logFC: 0.3209; Hhex pct.1: 0.543; Hmgcl avg_logFC: 0.353; Hmgcl pct.1: 0.871; Hmgcs1 avg_logFC: 0.2967; Hmgcs1 pct.1: 0.858; Hmgcs2 avg_logFC: 0.4234; Hmgcs2 pct.1: 0.996; Hnf4a avg_logFC: 0.2824; Hnf4a pct.1: 0.858; Hpgd avg_logFC: 0.3398; Hpgd pct.1: 0.588; Hpx avg_logFC: −0.264; Hpx pct.1: 0.998; Hrg avg_logFC: 0.4095; Hrg pct.1: 0.923; Hsd3b5 avg_logFC: −0.7981; Hsd3b5 pct.1: 0.25; Hsd17b7 avg_logFC: 0.3056; Hsd17b7 pct.1: 0.56; Hsd17b10 avg_logFC: 0.3092; Hsd17b10 pct.1: 0.841; Hspa8 avg_logFC: 0.4257; Hspa8 pct.1: 0.905; Igfbp4 avg_logFC: 0.4189; Igfbp4 pct.1: 0.964; Ildr2 avg_logFC: 0.2509; Ildr2 pct.1: 0.356; Insig2 avg_logFC: 0.3594; Insig2 pct.1: 0.928; Iqgap2 avg_logFC: 0.2645; Iqgap2 pct.1: 0.799; Kif1b avg_logFC: 0.3909; Kif1b pct.1: 0.686; Lcat avg_logFC: 0.3294; Lcat pct.1: 0.886; Lifr avg_logFC: −0.4875; Lifr pct.1: 0.556; Lipa avg_logFC: 0.4376; Lipa pct.1: 0.791; Lpgat1 avg_logFC: 0.275; Lpgat1 pct.1: 0.671; Lpin2 avg_logFC: 0.2841; Lpin2 pct.1: 0.781; Lrrc58 avg_logFC: 0.2641; Lrrc58 pct.1: 0.543; Man2a1 avg_logFC: 0.3324; Man2a1 pct.1: 0.737; Maob avg_logFC: 0.2722; Maob pct.1: 0.708; Mat1a avg_logFC: 0.9328; Mat1a pct.1: 1; Mettl7b avg_logFC: 0.3784; Mettl7b pct.1: 0.949; Mfsd2a avg_logFC: 0.3802; Mfsd2a pct.1: 0.41; Mia3 avg_logFC: 0.3563; Mia3 pct.1: 0.81; Mt1 avg_logFC: 0.638; Mt1 pct.1: 0.839; Mt2 avg_logFC: 0.3136; Mt2 pct.1: 0.548; Mtdh avg_logFC: 0.321; Mtdh pct.1: 0.649; Mttp avg_logFC: 0.2755; Mttp pct.1: 0.816; Mup3 avg_logFC: −0.4098; Mup3 pct.1: 1; Mup5 avg_logFC: −1.266; Mup5 pct.1: 0.538; Mup6 avg_logFC: −2.021; Mup6 pct.1: 0.778; Mup7 avg_logFC: −1.145; Mup7 pct.1: 0.938; Mup8 avg_logFC: −0.7871; Mup8 pct.1: 0.067; Mup9 avg_logFC: −1.818; Mup9 pct.1: 0.619; Mup11 avg_logFC: −1.559; Mup11 pct.1: 0.905; Mup12 avg_logFC: −0.8331; Mup12 pct.1: 0.571; Mup15 avg_logFC: −1.239; Mup15 pct.1: 0.156; Mup16 avg_logFC: −1.119; Mup16 pct.1: 0.567; Mup17 avg_logFC: −1.889; Mup17 pct.1: 0.98; Mup18 avg_logFC: −1.297; Mup18 pct.1: 0.928; Mup19 avg_logFC: −1.258; Mup19 pct.1: 0.973; Mup21 avg_logFC: −0.94; Mup21 pct.1: 0.676; Ncl avg_logFC: 0.2809; Ncl pct.1: 0.731; Ndrg2 avg_logFC: 0.3802; Ndrg2 pct.1: 0.985; Nfe2l1 avg_logFC: 0.2902; Nfe2l1 pct.1: 0.508; Nfe2l2 avg_logFC: 0.3048; Nfe2l2 pct.1: 0.465; Nfib avg_logFC: 0.2501; Nfib pct.1: 0.55; Nr1i3 avg_logFC: 0.3735; Nr1i3 pct.1: 0.625; Nucks1 avg_logFC: 0.2509; Nucks1 pct.1: 0.621; Nudt7 avg_logFC: −1.14; Nudt7 pct.1: 0.602; Pabpc1 avg_logFC: 0.3693; Pabpc1 pct.1: 0.766; Palmd avg_logFC: 0.2584; Palmd pct.1: 0.43; Pbld1 avg_logFC: 0.2811; Pbld1 pct.1: 0.723; Pcbp2 avg_logFC: 0.3113; Pcbp2 pct.1: 0.621; Pdia6 avg_logFC: −0.3359; Pdia6 pct.1: 0.611; Pdk1 avg_logFC: 0.2561; Pdk1 pct.1: 0.438; Pex11a avg_logFC: 0.462; Pex11a pct.1: 0.7; Phyh avg_logFC: 0.2541; Phyh pct.1: 0.998; Pigr avg_logFC: 0.2754; Pigr pct.1: 0.957; Plin5 avg_logFC: 0.2663; Plin5 pct.1: 0.532; Pltp avg_logFC: 0.2919; Pltp pct.1: 0.237; Pnp1a8 avg_logFC: 0.3083; Pnp1a8 pct.1: 0.723; Ppap2b avg_logFC: 0.2573; Ppap2b pct.1: 0.593; Ppara avg_logFC: 0.3055; Ppara pct.1: 0.614; Ppib avg_logFC: −0.3519; Ppib pct.1: 0.696; Ppm1a avg_logFC: 0.276; Ppm1a pct.1: 0.571; Ppp2r5a avg_logFC: 0.3493; Ppp2r5a pct.1: 0.764; Prkd3 avg_logFC: 0.305; Prkd3 pct.1: 0.682; Prlr avg_logFC: 0.3611; Prlr pct.1: 0.574; Pten avg_logFC: 0.3025; Pten pct.1: 0.64; Ptms avg_logFC: 0.3243; Ptms pct.1: 0.806; Ptp4a2 avg_logFC: 0.259; Ptp4a2 pct.1: 0.691; Ptplad1 avg_logFC: 0.2783; Ptplad1 pct.1: 0.654; Ptprd avg_logFC: 0.2719; Ptprd pct.1: 0.582; Pxmp4 avg_logFC: 0.2794; Pxmp4 pct.1: 0.687; Rdh7 avg_logFC: 0.2671; Rdh7 pct.1: 0.995; Rdh16 avg_logFC: 0.3716; Rdh16 pct.1: 0.494; Reep6 avg_logFC: 0.3193; Reep6 pct.1: 0.891; Retsat avg_logFC: 0.5333; Retsat pct.1: 0.957; Saa1 avg_logFC: −1.157; Saa1 pct.1: 0.232; Sc4mol avg_logFC: 0.2814; Sc4mol pct.1: 0.781; Sdhc avg_logFC: 0.3181; Sdhc pct.1: 0.76; Sec14l2 avg_logFC: 0.2724; Sec14l2 pct.1: 0.939; Secisbp2l avg_logFC: 0.2781; Secisbp2l pct.1: 0.529; Selenbp2 avg_logFC: −1.258; Selenbp2 pct.1: 0.612; Sepp1 avg_logFC: 0.2839; Sepp1 pct.1: 1; Serpina1a avg_logFC: −0.2708; Serpina1a pct.1: 0.991; Serpina1b avg_logFC: −0.3845; Serpina1b pct.1: 0.996; Serpina1c avg_logFC: −0.3176; Serpina1c pct.1: 0.998; Serpina1e avg_logFC: −1.134; Serpina1e pct.1: 0.977; Serpina3k avg_logFC: −0.3036; Serpina3k pct.1: 1; Serpina12 avg_logFC: −0.5326; Serpina12 pct.1: 0.226; Serpinf1 avg_logFC: 0.2572; Serpinf1 pct.1: 0.934; Sh3glb1 avg_logFC: 0.2538; Sh3glb1 pct.1: 0.433; Slc4a4 avg_logFC: 0.4025; Slc4a4 pct.1: 0.609
